≈ marks a conversion by molar mass, not a printed value.
Assays:
[1] = test system: Staphylococcus epidermidis; test: Antibacterial activity against methicillin-sensitive Staphylococcus epidermidis MSSE17-3 measured by liquid dilution method; assay type: functional
[2] = test system: Staphylococcus aureus; test: Antibacterial activity against methicillin-resistant Staphylococcus aureus MRSA17-1 measured by liquid dilution method; assay type: functional
[3] = test system: Staphylococcus aureus; test: Antibacterial activity against methicillin-sensitive Staphylococcus aureus MSSA17-3 measured by liquid dilution method; assay type: functional
[4] = test system: Staphylococcus aureus; test: Antibacterial activity against vancomycin-intermediate Staphylococcus aureus ATCC 700699 measured by liquid dilution method; assay type: functional
[5] = test system: Enterococcus faecalis; test: Antibacterial activity against Enterococcus faecalis EFA17-1 measured by liquid dilution method; assay type: functional
[6] = test system: Staphylococcus epidermidis; test: Antibacterial activity against methicillin-resistant Staphylococcus epidermidis MRSE17-3 measured by liquid dilution method; assay type: functional
[7] = test system: Staphylococcus aureus; test: Antibacterial activity against methicillin-resistant Staphylococcus aureus MRSA17-5 measured by liquid dilution method; assay type: functional
[8] = test system: Staphylococcus aureus; test: Antibacterial activity against methicillin-resistant Staphylococcus aureus MRSA17-6 measured by liquid dilution method; assay type: functional
[9] = test system: Staphylococcus epidermidis; test: Antibacterial activity against methicillin-sensitive Staphylococcus epidermidis MSSE17-2 measured by liquid dilution method; assay type: functional
[10] = test system: Staphylococcus epidermidis; test: Antibacterial activity against methicillin-resistant Staphylococcus epidermidis MRSE17-2 measured by liquid dilution method; assay type: functional
[11] = test system: Staphylococcus aureus; test: Antibacterial activity against methicillin-resistant Staphylococcus aureus MRSA17-2 measured by liquid dilution method; assay type: functional
[12] = test system: Enterococcus faecalis; test: Antibacterial activity against Enterococcus faecalis ATCC 29212 measured by liquid dilution method; assay type: functional
[13] = test system: Staphylococcus aureus; test: Antibacterial activity against vancomycin-intermediate Staphylococcus aureus ATCC 700788 measured by liquid dilution method; assay type: functional
[14] = test system: Staphylococcus epidermidis; test: Antibacterial activity against methicillin-resistant Staphylococcus epidermidis MRSE17-6 measured by liquid dilution method; assay type: functional
[15] = test system: Staphylococcus aureus; test: Antibacterial activity against methicillin-resistant Staphylococcus aureus ATCC 33591 measured by liquid dilution method; assay type: functional
[16] = test system: Staphylococcus aureus; test: Antibacterial activity against methicillin-resistant Staphylococcus aureus ATCC 43300 measured by liquid dilution method; assay type: functional
[17] = test system: Enterococcus faecium; test: Antibacterial activity against Enterococcus faecium EFM17-2 measured by liquid dilution method; assay type: functional
[18] = Plasma protein binding in CD-1 mouse plasma incubated for 4 hrs and assessed as unbound fraction at 2 uM measured by LC/MS/MS analysis; assay type: ADME, cell-free
[19] = test system: Staphylococcus aureus; test: Antibacterial activity against methicillin-sensitive Staphylococcus aureus MSSA17-1 measured by liquid dilution method; assay type: functional
[20] = test system: Staphylococcus epidermidis; test: Antibacterial activity against methicillin-resistant Staphylococcus epidermidis MRSE17-4 measured by liquid dilution method; assay type: functional
[21] = test system: Staphylococcus aureus; test: Antibacterial activity against Staphylococcus aureus ATCC 29213 measured by liquid dilution method; assay type: functional
[22] = test system: Staphylococcus aureus; test: Antibacterial activity against methicillin-sensitive Staphylococcus aureus MSSA17-2 measured by liquid dilution method; assay type: functional
[23] = Plasma protein binding in CD-1 mouse plasma incubated for 4 hrs at 2 uM measured by LC/MS/MS analysis; assay type: ADME, cell-free; conditions: read-out: PPB (converted)
[24] = test system: Staphylococcus epidermidis; test: Antibacterial activity against methicillin-resistant Staphylococcus epidermidis MRSE17-1 measured by liquid dilution method; assay type: functional
[25] = test system: Staphylococcus aureus; test: Antibacterial activity against methicillin-resistant Staphylococcus aureus MRSA17-3 measured by liquid dilution method; assay type: functional
[26] = test system: Enterococcus faecium; test: Antibacterial activity against Enterococcus faecium EFM17-1 measured by liquid dilution method; assay type: functional
[27] = test system: Staphylococcus epidermidis; test: Antibacterial activity against methicillin-sensitive Staphylococcus epidermidis MSSE17-1 measured by liquid dilution method; assay type: functional
[28] = Stability in CD-1 mouse whole blood assessed as compound remaining at 2 uM and measured at 60 mins LC-MS/MS analysis; assay type: ADME, tissue-based; conditions: read-out: Stability
[29] = Stability in CD-1 mouse whole blood assessed as compound remaining at 2 uM and measured at 10 mins LC-MS/MS analysis; assay type: ADME, tissue-based; conditions: read-out: Stability
[30] = Stability in CD-1 mouse whole blood assessed as compound remaining at 2 uM and measured at 120 mins LC-MS/MS analysis; assay type: ADME, tissue-based; conditions: read-out: Stability
[31] = Stability in CD-1 mouse whole blood assessed as compound remaining at 2 uM and measured at 30 mins LC-MS/MS analysis; assay type: ADME, tissue-based; conditions: read-out: Stability
[32] = test system: Staphylococcus aureus; test: Antibacterial activity against vancomycin-intermediate Staphylococcus aureus measured by liquid dilution method; assay type: functional
[33] = test system: Helicobacter pylori; test: Antibacterial activity against Helicobacter pylori measured by liquid dilution method; assay type: functional

Structure (SMILES) | MIC [1] [µg/mL] | MIC [2] [µg/mL] | MIC [3] [µg/mL] | MIC [4] [µg/mL] | MIC [5] [µg/mL] | MIC [6] [µg/mL] | MIC [7] [µg/mL] | MIC [8] [µg/mL] | MIC [9] [µg/mL] | MIC [10] [µg/mL] | MIC [11] [µg/mL] | MIC [12] [µg/mL] | MIC [13] [µg/mL] | MIC [14] [µg/mL] | MIC [15] [µg/mL] | MIC [16] [µg/mL] | MIC [17] [µg/mL] | fraction unbound at 4 h, 2 µM [18] | MIC [19] [µg/mL] | MIC [20] [µg/mL] | further results
CNC1=NC(=O)[C@H]([C@H](C)c2c[nH]c3cccc(Cl)c23)O1 | 0.5 (≈ 1.71 µM) | 1 (≈ 3.43 µM) | 0.5 (≈ 1.71 µM) | 0.5 (≈ 1.71 µM) | > 128 | 0.25 (≈ 0.857 µM) | 1 (≈ 3.43 µM) | 1 (≈ 3.43 µM) | 0.5 (≈ 1.71 µM) | 0.5 (≈ 1.71 µM) | 1 (≈ 3.43 µM) | > 128 | 1 (≈ 3.43 µM) | 1 (≈ 3.43 µM) | 2 (≈ 6.86 µM) | 1 (≈ 3.43 µM) | > 128 | 0.134 | 1 (≈ 3.43 µM) | 1 (≈ 3.43 µM) | MIC [21]: 2 µg/mL (≈ 6.86 µM); MIC [22]: 1 µg/mL (≈ 3.43 µM); fraction unbound at 4 h, 2 µM [23]: 0.134; MIC [24]: 1 µg/mL (≈ 3.43 µM); MIC [25]: 0.5 µg/mL (≈ 1.71 µM); MIC [26]: > 128 µg/mL; MIC [27]: 0.25 µg/mL (≈ 0.857 µM)
CC(C)[N+](C)(CCOC(=O)C1c2ccccc2Oc2ccccc21)C(C)C [PROPANTHELINE BROMIDE] |  |  |  |  |  |  |  |  |  |  |  |  |  |  |  |  |  |  |  |  | remaining at 1 h, 2 µM [28]: 64.7%; remaining at 10 min, 2 µM [29]: 93.5%; remaining at 2 h, 2 µM [30]: 38.3%; remaining at 0.5 h, 2 µM [31]: 82.9%
CNC1=NC(=O)[C@H]([C@H](C)c2c[nH]c3ccccc23)O1 [INDOMYCIN] | 0.5 (≈ 1.94 µM) | 0.5 (≈ 1.94 µM) | 0.25 (≈ 0.972 µM) | 0.125 (≈ 0.486 µM) | > 128 | 0.25 (≈ 0.972 µM) | 0.5 (≈ 1.94 µM) | 0.25 (≈ 0.972 µM) | 0.5 (≈ 1.94 µM) | 1 (≈ 3.89 µM) | 0.5 (≈ 1.94 µM) | > 128 | 0.25 (≈ 0.972 µM) | 1 (≈ 3.89 µM) | 1 (≈ 3.89 µM) | 0.25 (≈ 0.972 µM) | > 128 | 0.441 | 0.5 (≈ 1.94 µM) | 1 (≈ 3.89 µM) | MIC [32]: 0.125 µg/mL (≈ 0.486 µM); MIC90 [33]: 0.031 µg/mL (≈ 0.12 µM); MIC [21]: 0.5 µg/mL (≈ 1.94 µM); MIC [22]: 0.5 µg/mL (≈ 1.94 µM); fraction unbound at 4 h, 2 µM [23]: 0.441; MIC [24]: 1 µg/mL (≈ 3.89 µM); MIC [25]: 0.25 µg/mL (≈ 0.972 µM); MIC [26]: > 128 µg/mL; MIC [27]: 0.25 µg/mL (≈ 0.972 µM)
CNC1=NC(=O)[C@H]([C@H](C)c2c[nH]c3cccc(F)c23)O1 | 1 (≈ 3.63 µM) | 0.5 (≈ 1.82 µM) | 0.5 (≈ 1.82 µM) | 0.5 (≈ 1.82 µM) | > 128 | 0.5 (≈ 1.82 µM) | 1 (≈ 3.63 µM) | 0.5 (≈ 1.82 µM) | 1 (≈ 3.63 µM) | 1 (≈ 3.63 µM) | 1 (≈ 3.63 µM) | > 128 | 0.5 (≈ 1.82 µM) | 1 (≈ 3.63 µM) | 1 (≈ 3.63 µM) | 1 (≈ 3.63 µM) | > 128 | 0.2 | 1 (≈ 3.63 µM) | 1 (≈ 3.63 µM) | MIC [21]: 1 µg/mL (≈ 3.63 µM); MIC [22]: 1 µg/mL (≈ 3.63 µM); fraction unbound at 4 h, 2 µM [23]: 0.2; MIC [24]: 2 µg/mL (≈ 7.27 µM); MIC [25]: 0.5 µg/mL (≈ 1.82 µM); MIC [26]: > 128 µg/mL; MIC [27]: 0.5 µg/mL (≈ 1.82 µM)
CNC1=NC(=O)[C@H]([C@H](C)c2c[nH]c3cccc(C)c23)O1 | 0.25 (≈ 0.921 µM) | 0.5 (≈ 1.84 µM) | 0.5 (≈ 1.84 µM) | 0.5 (≈ 1.84 µM) | > 128 | 0.125 (≈ 0.461 µM) | 1 (≈ 3.69 µM) | 0.5 (≈ 1.84 µM) | 0.25 (≈ 0.921 µM) | 0.5 (≈ 1.84 µM) | 0.5 (≈ 1.84 µM) | > 128 | 0.5 (≈ 1.84 µM) | 0.5 (≈ 1.84 µM) | 1 (≈ 3.69 µM) | 0.5 (≈ 1.84 µM) | > 128 | 0.276 | 1 (≈ 3.69 µM) | 0.5 (≈ 1.84 µM) | MIC [21]: 1 µg/mL (≈ 3.69 µM); MIC [22]: 1 µg/mL (≈ 3.69 µM); fraction unbound at 4 h, 2 µM [23]: 0.276; MIC [24]: 0.5 µg/mL (≈ 1.84 µM); MIC [25]: 0.5 µg/mL (≈ 1.84 µM); MIC [26]: > 128 µg/mL; MIC [27]: 0.125 µg/mL (≈ 0.461 µM)

— ChEMBL document CHEMBL5104172, “Design, synthesis, and antibacterial activity of derivatives of Tryptophanyl-tRNA synthetase inhibitor indolmycin” (Eur J Med Chem, 2022)
